Measurements reported in PubChem BioAssay AID330 (DTP/NCI, 2004).
Several values for one entry are separate records, joined by “and”; a condition that tells them apart may be missing. Equal values may be shown once. Inconclusive results and toxic doses are left out. Rule for the calls: active = survival T/C of 150% or more; inactive = T/C below 125% in these data.

Tested on: P388 leukemia ip, CD2F1 mice, survival T/C
Experiment: NCI In Vivo Anticancer Drug Screen. Data for tumor model P388 Leukemia (intraperitoneal) in CD2F1 (CDF1) mice
Conditions: endpoint: median survival time, higher = longer survival
Method in brief: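 Mice carrying the transplanted tumor received test compound or vehicle. Survival was recorded in each group, and the value is the treated-group measurement divided by that of the vehicle-treated control group.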

[1] = dose: 50.0 mg/kg/injection, schedule: Q01DX005 (ip), vehicle: Klucel (hydroxypropylcellulose) (HPC)
[2] = dose: 50.0 mg/kg/injection, schedule: Q01DX009 (ip), vehicle: saline
[3] = dose: 100.0 mg/kg/injection, schedule: Q01DX009 (ip), vehicle: saline
[4] = dose: 200.0 mg/kg/injection, schedule: Q01DX009 (ip), vehicle: saline
[5] = dose: 12.5 mg/kg/injection, schedule: Q01DX009 (ip), vehicle: saline with Tween-80
[6] = dose: 25.0 mg/kg/injection, schedule: Q01DX009 (ip), vehicle: saline with Tween-80
[7] = dose: 50.0 mg/kg/injection, schedule: Q01DX009 (ip), vehicle: Klucel (hydroxypropylcellulose) (HPC)
[8] = dose: 100.0 mg/kg/injection, schedule: Q01DX009 (ip), vehicle: Klucel (hydroxypropylcellulose) (HPC)
[9] = dose: 200.0 mg/kg/injection, schedule: Q01DX009 (ip), vehicle: Klucel (hydroxypropylcellulose) (HPC)
[10] = dose: 12.5 mg/kg/injection, schedule: Q01DX009 (ip), vehicle: Klucel (hydroxypropylcellulose) (HPC)
[11] = dose: 25.0 mg/kg/injection, schedule: Q01DX009 (ip), vehicle: Klucel (hydroxypropylcellulose) (HPC)
[12] = dose: 100.0 mg/kg/injection, schedule: Q01DX001 (ip), vehicle: saline with Tween-80
[13] = dose: 200.0 mg/kg/injection, schedule: Q01DX001 (ip), vehicle: saline with Tween-80
[14] = dose: 50.0 mg/kg/injection, schedule: Q01DX009 (ip), vehicle: saline with Tween-80
[15] = dose: 100.0 mg/kg/injection, schedule: Q01DX009 (ip), vehicle: saline with Tween-80
[16] = dose: 200.0 mg/kg/injection, schedule: Q01DX009 (ip), vehicle: saline with Tween-80
[17] = dose: 60.0 mg/kg/injection, schedule: Q01DX005 (ip), vehicle: saline with Tween-80

Measured: T/C

CN(C)C(=S)/N=C1/SCS(=O)(=O)N1c1ccccc1
inactive: dose: 50.0 mg/kg/injection, schedule: Q04DX003 (ip), vehicle: saline with Tween-80 98 % of control | dose: 100.0 mg/kg/injection, schedule: Q04DX003 (ip), vehicle: saline with Tween-80 104 % of control | dose: 200.0 mg/kg/injection, schedule: Q04DX003 (ip), vehicle: saline with Tween-80 95 % of control

C1CN(CC2CCC(CN3CCOCC3)O2)CCO1 (configuration not stated)
inactive: dose: 3.12 mg/kg/injection, schedule: Q01DX005 (ip), vehicle: Klucel (hydroxypropylcellulose) (HPC) 96 % of control | dose: 6.25 mg/kg/injection, schedule: Q01DX005 (ip), vehicle: Klucel (hydroxypropylcellulose) (HPC) 97 % of control | dose: 12.5 mg/kg/injection, schedule: Q01DX005 (ip), vehicle: Klucel (hydroxypropylcellulose) (HPC) 100 % of control | dose: 25.0 mg/kg/injection, schedule: Q01DX005 (ip), vehicle: Klucel (hydroxypropylcellulose) (HPC) 114 % of control | [1] 96 % of control

S=C(Nc1ccc(Cl)cc1)SC1CCCCC1
inactive: dose: 25.0 mg/kg/injection, schedule: Q01DX009 (ip), vehicle: saline 100 % of control | [2] 102 % of control and 108 % of control | [3] 118 % of control and 119 % of control | [4] 124 % of control

Brc1ccc[n+](CCc2ccccc2)c1
inactive: [5] 111 % of control | [6] 98 % of control

O=C1c2ccccc2OC2CCON12 (configuration not stated)
inactive: [7] 100 % of control | [8] 100 % of control | [9] 116 % of control

CCCCCCCCCSc1nc2ccc(N=Cc3ccccc3O)cc2s1
inactive: [10] 100 % of control | [11] 100 % of control | [7] 91 % of control and 92 % of control | [9] 90 % of control

CCCCCCC(=O)/C=C/c1ccc(C)cc1
inactive: [1] 100 % of control | dose: 100.0 mg/kg/injection, schedule: Q01DX005 (ip), vehicle: Klucel (hydroxypropylcellulose) (HPC) 100 % of control | dose: 200.0 mg/kg/injection, schedule: Q01DX005 (ip), vehicle: Klucel (hydroxypropylcellulose) (HPC) 94 % of control

O=[N+]([O-])c1cnc2n(O)cccc1-2
inactive: [12] 90 % of control | [13] 87 % of control

Cc1ccc(N(O)C(C)(C)C)cc1
inactive: [6] 97 % of control | dose: 25.0 mg/kg/injection, schedule: Q04DX003 (ip), vehicle: gum acacia 99 % of control | [14] 91 % of control | dose: 50.0 mg/kg/injection, schedule: Q04DX003 (ip), vehicle: gum acacia 100 % of control | [15] 102 % of control | dose: 100.0 mg/kg/injection, schedule: Q04DX003 (ip), vehicle: gum acacia 110 % of control | dose: 200.0 mg/kg/injection, schedule: Q04DX003 (ip), vehicle: gum acacia 100 % of control

Cc1cc(=O)n2c(nc3cc([N+](=O)[O-])ccc32)s1
inactive: [7] 98 % of control | [8] 99 % of control | [9] 98 % of control

Clc1ccc(C(Nc2nncs2)Nc2nncs2)cc1Cl
inactive: dose: 60.0 mg/kg/injection, schedule: Q01DX005 (ip), vehicle: Klucel (hydroxypropylcellulose) (HPC) 94 % of control | dose: 120.0 mg/kg/injection, schedule: Q01DX005 (ip), vehicle: Klucel (hydroxypropylcellulose) (HPC) 96 % of control | dose: 240.0 mg/kg/injection, schedule: Q01DX005 (ip), vehicle: Klucel (hydroxypropylcellulose) (HPC) 102 % of control

CCOC(=O)Nc1c2ccccc2c(NC(=O)OCC)c2ccccc12
inactive: dose: 50.0 mg/kg/injection, schedule: Q01DX001 (ip), vehicle: saline with Tween-80 105 % of control | [12] 100 % of control | [13] 102 % of control | dose: 400.0 mg/kg/injection, schedule: Q01DX001 (ip), vehicle: saline with Tween-80 96 % of control

CC(=O)OC1=CC2C(OC1=O)C1C=CC2(OC(C)=O)C(=O)O1 (configuration not stated)
inactive: [14] 102 % of control | [15] 104 % of control | [16] 113 % of control

NN=C(c1ccc(Br)cc1)c1ccc(Br)cc1
inactive: dose: 25.0 mg/kg/injection, schedule: Q04DX002 (ip), vehicle: saline with Tween-80 100 % of control | dose: 50.0 mg/kg/injection, schedule: Q04DX002 (ip), vehicle: saline with Tween-80 101 % of control | dose: 100.0 mg/kg/injection, schedule: Q04DX002 (ip), vehicle: saline with Tween-80 100 % of control and 105 % of control

C=CCN1CCC23c4c5ccc(O)c4OC2C(=NN=C2CCC4(O)C6Cc7ccc(O)c8c7C4(CCN6CC=C)C2O8)CCC3(O)C1C5 (configuration not stated)
inactive: dose: 15.0 mg/kg/injection, schedule: Q01DX005 (ip), vehicle: saline with Tween-80 92 % of control | dose: 30.0 mg/kg/injection, schedule: Q01DX005 (ip), vehicle: saline with Tween-80 90 % of control | [17] 100 % of control and 101 % of control

S=c1n(-c2ccc(Cl)cc2)c2nc3ccccc3nc(/c2=N\Nc2cc(Cl)ccc2Cl)n1-c1ccc(Br)cc1
inactive: dose: 50.0 mg/kg/injection, schedule: Q01DX005 (ip), vehicle: saline with Tween-80 100 % of control | dose: 100.0 mg/kg/injection, schedule: Q01DX005 (ip), vehicle: saline with Tween-80 105 % of control | dose: 200.0 mg/kg/injection, schedule: Q01DX005 (ip), vehicle: saline with Tween-80 97 % of control

COc1ccc(-n2c(CSc3ccc(Cl)cc3)n[nH]c2=S)cc1
inactive: [17] 104 % of control | dose: 120.0 mg/kg/injection, schedule: Q01DX005 (ip), vehicle: saline with Tween-80 96 % of control | dose: 240.0 mg/kg/injection, schedule: Q01DX005 (ip), vehicle: saline with Tween-80 95 % of control

O=c1c2oc3ccccc3c2cnn1CO
inactive: [5] 103 % of control and 97 % of control | [6] 100 % of control and 105 % of control | [14] 102 % of control and 108 % of control | [15] 105 % of control and 117 % of control

O=c1oc(-c2ccccc2)cc(N2CCCCC2)c1Cl
inactive: [14] 97 % of control | [15] 97 % of control | [16] 97 % of control

CCOC(=O)C[N+](C)(C)C(C#N)C(C)c1ccccc1 (configuration not stated)
inactive: dose: 60.0 mg/kg/injection, schedule: Q01DX005 (ip), vehicle: saline 95 % of control | dose: 120.0 mg/kg/injection, schedule: Q01DX005 (ip), vehicle: saline 95 % of control

O=C1C2=C(C(=O)C3=C1C1C=CC3C1)C1C=CC2C1
inactive: dose: 100.0 mg/kg/injection, schedule: Q04DX003 (ip), vehicle: Klucel (hydroxypropylcellulose) (HPC) 118 % of control | dose: 200.0 mg/kg/injection, schedule: Q04DX003 (ip), vehicle: Klucel (hydroxypropylcellulose) (HPC) 102 % of control | dose: 400.0 mg/kg/injection, schedule: Q04DX003 (ip), vehicle: Klucel (hydroxypropylcellulose) (HPC) 96 % of control

Cc1ccc2[nH]c(=S)n(CCc3ccccc3)c(=O)c2c1
inactive: [7] 99 % of control | [8] 97 % of control | [9] 97 % of control

COc1ccc(C(C)c2cc3c(cc2OC)OCO3)cc1OC (configuration not stated)
inactive: dose: 50.0 mg/kg/injection, schedule: Q01DX005 (ip), vehicle: distilled water + Tween-80 99 % of control | dose: 100.0 mg/kg/injection, schedule: Q01DX005 (ip), vehicle: distilled water + Tween-80 98 % of control | dose: 200.0 mg/kg/injection, schedule: Q01DX005 (ip), vehicle: distilled water + Tween-80 100 % of control

CC(=O)[O][Hg][CH2]C1Cc2ccccc2O1 (configuration not stated)
inactive: dose: 2.5 mg/kg/injection, schedule: Q01DX009 (ip), vehicle: saline 98 % of control | dose: 5.0 mg/kg/injection, schedule: Q01DX009 (ip), vehicle: saline 99 % of control | dose: 10.0 mg/kg/injection, schedule: Q01DX009 (ip), vehicle: saline 99 % of control | dose: 20.0 mg/kg/injection, schedule: Q01DX009 (ip), vehicle: saline 100 % of control

CC(C)(C)C(=O)Oc1cc2c(cc1OC(=O)C(C)(C)C)C(c1ccccc1)CNCC2 (configuration not stated)
inactive: [6] 96 % of control | [14] 98 % of control

ClC1=C(Cl)C2(Cl)C3C(c4ccc(I)cc4C4C3C3(Cl)C(Cl)=C(Cl)C4(Cl)C3(Cl)Cl)C1(Cl)C2(Cl)Cl (configuration not stated)
inactive: [2] 105 % of control | [3] 108 % of control | [4] 105 % of control

CC1(CCl)CC1(Cl)Cl (configuration not stated)
inactive: dose: 50.0 mg/kg/injection, schedule: Q01DX005 (ip), vehicle: saline 103 % of control | dose: 100.0 mg/kg/injection, schedule: Q01DX005 (ip), vehicle: saline 103 % of control | dose: 200.0 mg/kg/injection, schedule: Q01DX005 (ip), vehicle: saline 104 % of control

C=C1C(=O)OC2/C=C(\C)CC/C=C(\C)C(OC(=O)C3(C)OC3C)C(O)C12 (configuration not stated)
inactive: [10] 96 % of control | [11] 100 % of control | [7] 115 % of control | [8] 103 % of control
